Data on five compounds can be found in US20060004036A1, “Sigma-2 receptor agonists and their use in the treatment of HIV infection” (The United States of America, per Secy. DHHS, NIH, priority 2003, published 2006).

SMILES strings stand for the structures.

For one assay, the system named is HIV. The experiment in a line: HIV infectivity assay, luciferase activity in CEMX174 cells with SIV LTR-driven luciferase gene. As to conditions: for inhibition of HIV infection (in words): lymphocytes incubated 24 hours with drug, washed, exposed to HIV for 24 hours, luciferase activity (FIG. 2). It counts as cell-based. The procedure: CEMX174 cells transfected with a luciferase gene driven by the Simian Immunodeficiency Virus (SIV) LTR are used in infectivity assays. Cells are then treated with sigma-2 receptor agonists at various concentrations followed by incubation in the presence or absence (control) of HIV. Luciferase activity quantifies HIV replication.
This inhibition of HIV infection occurs at doses within the range of concentrations of CB-184 and haldol that produce reductions in membrane sphingomyelin, as shown above in FIG. 1. In these experiments, lymphocytes transfected with a luciferease gene driven by the Simian Immunodeficiency virus (SIV)LTR were incubated for 24 hours in the presence of the indicated dose of sigma-2 receptor agonist. The drugs were then removed, cells were washed and exposed to HIV for 24 hours. Cells were then lysed and luciferase activity quantified. Luciferase activity indicates the level of infectivity of the HIV virions. All of the compounds evaluated with sigma-2 agonist activity inhibited HIV infection at concentrations that were non-toxic to lymphocytes.

Another assay has as its system H9 lymphocytes. The experiment in a line: Membrane sphingomyelin levels in [3H]palmitic acid-labeled H9 lymphocytes. As to conditions: H9 cells, 24 hours incubation (FIG. 1). It counts as cell-based. The procedure: Methods: Membrane sphingomyelin is metabolically labeled in H9 lymphocytes by incubating the cells with [^3H] palmitic acid in supplemented RPMI media for 48 h. Labeled media is removed and cells are incubated in the presence or absence of various concentrations of the sigma-2 receptor agonists CB-184 or haldol (haloperidol) for 24 hours. Total lipids are extracted and the dried organic layer is chromatographed on Silica G-60 plates. Sphingomyelin spots are scraped and quantified by liquid scintillation counting.

Regarding `O=C(CCCN1CCC(O)(c2ccc(Cl)cc2)CC1)c1ccc(F)cc1` [haldol, haloperidol, reference compound], the “inhibition of HIV infection (in words)” value with HIV is recorded as “dose-dependent inhibition”.
Same read-out and setting: with `CN1CC[C@]2(c3cccc(O)c3)CC(=O)/C(=C/c3ccccc3)[C@H]1C2` [CB-64D] the entry was “dose-dependent inhibition”.
On to `CN1CC[C@]2(c3cccc(O)c3)CC(=O)/C(=C/c3ccc(Cl)c(Cl)c3)[C@H]1C2` [CB-184, (+)-1R,5R-E-8-(3,4-dichlorobenzylidene)-5-(3-hydroxyphenyl)-2-methylmorphan-7-one], for which the “inhibition of HIV infection (in words)” value in the assay on HIV is on record as “dose-dependent inhibition”. Besides, the entries for the “reduction of control levels of membrane sphingomyelin” value in the assay on H9 lymphocytes (0.3 μM) and in the assay with H9 lymphocytes (1 μM) were “about 39%” and roughly 45%, respectively.
Take `c1ccc(CCN2CCCCC2)cc1` [AC-927, N-phenethylpiperidine, reference compound]: the “effect of the antagonist on the ability of CB-184 to inhibit HIV infection of lymphocytes (in words)” value with HIV (with CB-184 at various doses and different HIV viral titres (FIG. 3, 4, 5)) is given as “reversed”.
In the case of `CN(CCc1ccc(Cl)c(Cl)c1)[C@H]1CCCC[C@H]1N1CCCC1` (relative stereo) [BD737, 1S,2R-(+)-cis-N-[2-(3,4-dichlorophenyl)ethyl]-N-methyl-2-(1-pyrrolidinyl)-cyclohexylamine], in the assay on HIV, the “inhibition of HIV infection (in words)” value is “dose-dependent inhibition”.
